Test results taken from PMC12320299 (Chemical Science, 2025).

What was measured:
[1] = test system: HCT116 TP53 wild-type (TP53WT); assay: MTT viability assay, HCT116 TP53 wild-type, 96 h; format: cell-based, human
Protocol: (§1) removed and 100 µL DMSO was added to dissolve the formazan crystals. Photometric quantification was performed at 570 nm with a Multiskan Go 1510 photometer (Thermo Fisher […]
(§2) The absorbances were blank corrected and converted to relative proliferation. The IC50 values (concentration of 50% growth inhibition) were obtained using a sigmoidal fit of the experimental data and calculated as the mean ± standard deviation of at least three independent experiments, each in at least triplicates.
(§3) HCT116, HCT116 p53KO (each 2.000 cells/well) and CT-26 cells (500 cells/well) were seeded in 100 µL/well into flat-bottom 96-well plates (Starlab) and incubated at 37 °C for 96 h in a humidified incubator (Binder CB210) at 5% CO2. The test compound was dissolved in DMSO, serially diluted in the appropriate cell culture medium (see section above) to final DMSO concentrations of ≤0.5% v/v and 100 µL aliquots added to wells in triplicates. […] Optical densities were measured with a microplate reader (ELx808, Biotek) at a wavelength of 550 nm (and a reference wavelength of 690 nm) and blank corrected. […]
(§4) (each 3.000 cells/well) were seeded in 100 µL/well into flat-bottom 96-well plates (Starlab) and incubated at 37 °C for 24 h in a humidified incubator (Binder CB210) at 5% CO2. […] After 24 h of treatment, plates were measured by MTT assay as described above. […]

[2] = test system: SW480 cancer cells; assay: Cell cycle analysis by flow cytometry (propidium iodide); format: cell-based, human; settings: 24 h; 1a 12.5 to 50 nM; gemcitabine 10 nM
[3] = Total 101Ru content in tumour, organs and blood by ICP-MS; format: in vivo, BALB/c mice; settings: 4 h after last injection, 10 mg kg^−1 i.p.
Protocol: Furthermore, tumour, organs and blood of the 1a-treated mice were collected 4 h after the last injection. […] Intraperitoneally administered compounds are primarily absorbed through the portal circulation, which can lead to a substantial liver exposure.[71] […] This paralleled earlier findings of other metal(arenes) in this tumour model.[72]
Animals. All experiments were carried out with male Balb/c mice according to the regulation of the Ethics Committee for the Care and Use of Laboratory Animals at the Medical University Vienna (BMWF-2022-0.770.291), the guidelines from the Austrian Animal Science Association and the Federation of European Laboratory Animal Science Associations (FELASA). The animals were kept in a pathogen-free conditions, controlled environment with 12 h light–dark cycle with ad libitum access to food and water. Every procedure was done in a laminar airflow […]
Treatment. CT-26 cells ([…] in 50 μL serum-free medium) were injected subcutaneously (s.c.) into the right flank of ten– to eleven-week-old male Balb/c mice. Three days after cell injection, all compounds (dissolved in 10% DMSO in water) were administered […]
1b/2b. Regarding anticancer activity experiments, mice were treated on 5 consecutive days over 2 weeks. Four hours after the last treatment 1a-treated mice were sacrificed and analysed for ruthenium levels in tissue via ICP-MS measurements. […]
Missing data points were imputed. Permutation-based FDR was set to 0.05 and S0 = 0.1 for multi-parameter corrected significance testing of protein regulation. […]
Resources (Version 6.8)13 and STRING (Version 10.0).14
Additionally, statistical analysis of protein regulations from the in vivo samples was performed using the LIMMA R-package.15 P-values where adjusted according to Benjamini-Hochberg16 and a gene set variation analysis was performed (GSVA).17 Protein Sets where constructed using the molecular signature database.18
Total metal content in organs harvested from 1a-treated mice was determined by inductively coupled plasma mass spectrometry (ICP-MS) on an Agilent 7800 instrument and Agilent SPS 4 autosampler using the following parameters: RF power 1550, carrier gas (Ar) 1.08 L∙min-1, plasma gas (Ar) 15 L∙min-1, dwell time 0.1 s, 12 replicates with 100 sweeps. A […]
by Agilent MassHunter (Version C.01.04) software.
The lower limit of quantification of the method was 0.071 µg L-1. Organs, tumour and blood were digested with nitric acid (20% w/w) and diluted with ultrapure water to reach a final nitric acid concentration <4%.

[4] = Reactivity by NMR with 9-ethylguanine and methionine or cysteine; format: physicochemical; settings: 1 mM, equimolar nucleophiles, D2O/20% DMSO, up to 24 h
Protocol: Nevertheless, they are activated by hydrolysis of the most labile M–O bond (Fig. 2C).[48] Further hydrolysis releases the NQ ligand, because the free hemiaminal-containing NQ is unstable and the presence of biological nucleophiles accelerated NQ release.[48] […] The samples were analysed on a 500 MHz NMR spectrometer after 0 h, 1.5 h and 24 h. […] The aromatic proton of 9-ethylguanine was consistently found at 7.6 ppm.

[5] = test system: HCT116 TP53-knockout (TP53KO) cell line; assay: MTT viability assay, HCT116 TP53-knockout, 96 h; format: cell-based, human
Protocol: as §1, §2, §3, §4

## CCC1=C2[O][Ru][O]C2(n2cccn2)c2ccccc2C1=O.Cc1ccc(C(C)C)cc1 (centres unmarked) [Compound 1a, [(3-ethyl-4-oxo-(pyrazolyl)-dihydronaphthalene)(cymene)ruthenium(II)]]
[1]
  IC50: 130 ± 20 nM
[2]
  cell cycle distribution: dose-dependent increase in the S and G2/M phases
[3]
  101Ru content, blood clot: < 0.4 mg/kg
  101Ru content, blood serum: < 0.4 mg/kg
  101Ru content, liver: 10 ± 1 mg/kg
  101Ru content, tumour: 0.9 ± 0.7 mg/kg
[4]
  stability by NMR: remained remarkably stable
[5]
  IC50: 260 ± 10 nM
